Measurements reported in PubChem BioAssay AID2060503 (Molecular Pharmacology Branch, DTP, NCI, 2025).

Test system: 817829-284-R-J1-PDC complex spheroids, viability
Test: Anticancer human tumor 817829-284-R-J1-PDC patient-derived colon adenocarcinoma cell line growth inhibition [GQUAD]
Conditions: for IC50: curve of first compound; for viability, T/C: stronger effect = lower value
Method in brief: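 Tumor cells were grown as complex spheroids with HUVEC endothelial cells and mesenchymal stem cells as stroma. G-quadruplex stabilizers were combined with targeted agents over half-log dilutions from near the clinical Cmax, or from 10 microM.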

[1] = second compound 0.0316 µM, first compound 0.0316 µM
[2] = second compound 0.0316 µM, first compound 0.1 µM
[3] = second compound 0.0316 µM, first compound 0.316 µM
[4] = second compound 0.0316 µM, first compound 1 µM
[5] = second compound 0.0316 µM, first compound 3.16 µM
[6] = second compound 0.0316 µM, first compound 10 µM
[7] = second compound 0.1 µM, first compound 0.0316 µM
[8] = second compound 0.1 µM, first compound 0.1 µM
[9] = second compound 0.1 µM, first compound 0.316 µM
[10] = second compound 0.1 µM, first compound 1 µM
[11] = second compound 0.1 µM, first compound 3.16 µM
[12] = second compound 0.1 µM, first compound 10 µM
[13] = second compound 0.316 µM, first compound 0.0316 µM
[14] = second compound 0.316 µM, first compound 0.1 µM
[15] = second compound 0.316 µM, first compound 0.316 µM
[16] = second compound 0.316 µM, first compound 1 µM
[17] = second compound 0.316 µM, first compound 3.16 µM
[18] = second compound 0.316 µM, first compound 10 µM
[19] = second compound 1 µM, first compound 0.0316 µM
[20] = second compound 1 µM, first compound 0.1 µM
[21] = second compound 1 µM, first compound 0.316 µM
[22] = second compound 1 µM, first compound 1 µM
[23] = second compound 1 µM, first compound 3.16 µM
[24] = second compound 1 µM, first compound 10 µM
[25] = second compound 3.16 µM, first compound 0.0316 µM
[26] = second compound 3.16 µM, first compound 0.1 µM
[27] = second compound 3.16 µM, first compound 0.316 µM
[28] = second compound 3.16 µM, first compound 1 µM
[29] = second compound 3.16 µM, first compound 3.16 µM
[30] = second compound 3.16 µM, first compound 10 µM
[31] = second compound 10 µM, first compound 0.0316 µM
[32] = second compound 10 µM, first compound 0.1 µM
[33] = second compound 10 µM, first compound 0.316 µM
[34] = second compound 10 µM, first compound 1 µM
[35] = second compound 10 µM, first compound 3.16 µM
[36] = second compound 10 µM, first compound 10 µM
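Note: spheroids exposed to agents for 7 days before readout.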
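Throughout, for viability, T/C: percent viability relative to DMSO vehicle control taken as 100%.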

With COc1cc(C2c3cc4c(cc3C(OC3OC5COC(C)OC5C(O)C3O)C3COC(=O)C23)OCO4)cc(OC)c1O (stereo unspecified) + Cc1cnc(CNC(=O)c2c(=O)c3ccc(N4CCCN(C)CC4)nc3n3c2sc2ccccc23)cn1 as the compound, how does the IC50 (second compound 0.0316 µM) read?
The IC50 was 39.3 nM.

What about the IC50 (second compound 0.1 µM) of the same compound?
Its IC50 is under 31.6 nM.

And the IC50 (second compound 0.316 µM)?
Its IC50 is under 31.6 nM.

What about the IC50 (second compound 1 µM) of the same compound?
Its IC50 is under 31.6 nM.

And the IC50 (second compound 3.16 µM)?
Its IC50 is under 31.6 nM.

What about the IC50 (second compound 10 µM) of the same compound?
The IC50 was under 31.6 nM.

What about the viability, T/C [1] of the same compound?
The viability, T/C was 57.3%.

And the viability, T/C [2]?
The viability, T/C was 30.7%.

What about the viability, T/C [3] of the same compound?
The viability, T/C was 35.5%.

And the viability, T/C [4]?
Its viability, T/C is 23.1%.

What about the viability, T/C [5] of the same compound?
Its viability, T/C is 15.1%.

What about the viability, T/C [6] of the same compound?
Its viability, T/C is 7.07%.

And the viability, T/C [7]?
Its viability, T/C is 30.4%.

And the viability, T/C [8]?
Its viability, T/C is 31.3%.

What about the viability, T/C [9] of the same compound?
The viability, T/C was 22.9%.

And the viability, T/C [10]?
Its viability, T/C is 24.6%.

What about the viability, T/C [11] of the same compound?
The viability, T/C was 15%.

And the viability, T/C [12]?
The viability, T/C was 6.35%.

What about the viability, T/C [13] of the same compound?
The viability, T/C was 22.4%.

What about the viability, T/C [14] of the same compound?
The viability, T/C was 27.7%.

What about the viability, T/C [15] of the same compound?
Its viability, T/C is 23.2%.

What about the viability, T/C [16] of the same compound?
The viability, T/C was 21%.

And the viability, T/C [17]?
The viability, T/C was 11.9%.

And the viability, T/C [18]?
Its viability, T/C is 7.02%.

What about the viability, T/C [19] of the same compound?
Its viability, T/C is 18.7%.

And the viability, T/C [20]?
Its viability, T/C is 21.1%.

And the viability, T/C [21]?
Its viability, T/C is 18.8%.

And the viability, T/C [22]?
Its viability, T/C is 22.5%.

And the viability, T/C [23]?
The viability, T/C was 12.2%.

What about the viability, T/C [24] of the same compound?
The viability, T/C was 5.25%.

What about the viability, T/C [25] of the same compound?
Its viability, T/C is 19.6%.

And the viability, T/C [26]?
Its viability, T/C is 22.5%.

And the viability, T/C [27]?
The viability, T/C was 19.5%.

And the viability, T/C [28]?
The viability, T/C was 15.9%.

What about the viability, T/C [29] of the same compound?
The viability, T/C was 9.99%.

And the viability, T/C [30]?
The viability, T/C was 5.08%.

And the viability, T/C [31]?
The viability, T/C was 0.08%.

And the viability, T/C [32]?
Its viability, T/C is 0.12%.

And the viability, T/C [33]?
The viability, T/C was 0.15%.

And the viability, T/C [34]?
The viability, T/C was 0.11%.

What about the viability, T/C [35] of the same compound?
The viability, T/C was 0.15%.

What about the viability, T/C [36] of the same compound?
Its viability, T/C is 0.14%.

What does the source list for Cc1cccc(N(C)C(=O)C2C(O)CCN2c2nc(C)cc(C(F)(F)F)c2C#N)c1 (stereo unspecified) + Cc1cnc(CNC(=O)c2c(=O)c3ccc(N4CCCN(C)CC4)nc3n3c2sc2ccccc23)cn1?
IC50 (second compound 0.0316 µM): > 10000 nM; IC50 (second compound 0.1 µM): < 31.6 nM; IC50 (second compound 0.316 µM): < 31.6 nM; IC50 (second compound 1 µM): < 31.6 nM; IC50 (second compound 3.16 µM): < 31.6 nM; IC50 (second compound 10 µM): < 31.6 nM; viability, T/C [1]: 85.6%; viability, T/C [2]: 82.6%; viability, T/C [3]: 81.8%; viability, T/C [4]: 53.1%; viability, T/C [5]: 91.4%; viability, T/C [6]: 75%; viability, T/C [7]: 38.5%; viability, T/C [8]: 36.7%; viability, T/C [9]: 29.3%; viability, T/C [10]: 36.1%; viability, T/C [11]: 39.3%; viability, T/C [12]: 33.9%; viability, T/C [13]: 27.7%; viability, T/C [14]: 30.4%; viability, T/C [15]: 26.6%; viability, T/C [16]: 25.9%; viability, T/C [17]: 28.6%; viability, T/C [18]: 23%; viability, T/C [19]: 19.2%; viability, T/C [20]: 22.1%; viability, T/C [21]: 22.1%; viability, T/C [22]: 20.2%; viability, T/C [23]: 22.9%; viability, T/C [24]: 19.1%; viability, T/C [25]: 20.1%; viability, T/C [26]: 18.9%; viability, T/C [27]: 20.4%; viability, T/C [28]: 18.8%; viability, T/C [29]: 18%; viability, T/C [30]: 17.2%; viability, T/C [31]: 0.19%; viability, T/C [32]: 0.22%; viability, T/C [33]: 0.21%; viability, T/C [34]: 0.21%; viability, T/C [35]: 0.24%; viability, T/C [36]: 0.21%

Which results are given for Cn1ncnc1[C@H]1c2n[nH]c(=O)c3cc(F)cc(c23)N[C@@H]1c1ccc(F)cc1 + Cc1cnc(CNC(=O)c2c(=O)c3ccc(N4CCCN(C)CC4)nc3n3c2sc2ccccc23)cn1?
IC50 (second compound 0.0316 µM): 27.3 nM; IC50 (second compound 0.1 µM): < 0.999 nM; IC50 (second compound 0.316 µM): < 0.999 nM; IC50 (second compound 1 µM): < 0.999 nM; IC50 (second compound 3.16 µM): < 0.999 nM; IC50 (second compound 10 µM): < 0.999 nM; viability, T/C (second compound 0.0316 µM, first compound 0.000999 µM): 84.5%; viability, T/C (second compound 0.0316 µM, first compound 0.00316 µM): 70.5%; viability, T/C (second compound 0.0316 µM, first compound 0.00999 µM): 58.1%; viability, T/C [1]: 48.8%; viability, T/C (second compound 0.0316 µM, first compound 0.0999 µM): 43.6%; viability, T/C [3]: 42.4%; viability, T/C (second compound 0.1 µM, first compound 0.000999 µM): 38.6%; viability, T/C (second compound 0.1 µM, first compound 0.00316 µM): 35.7%; viability, T/C (second compound 0.1 µM, first compound 0.00999 µM): 29.8%; viability, T/C [7]: 34.2%; viability, T/C (second compound 0.1 µM, first compound 0.0999 µM): 31.7%; viability, T/C [9]: 29.6%; viability, T/C (second compound 0.316 µM, first compound 0.000999 µM): 26.3%; viability, T/C (second compound 0.316 µM, first compound 0.00316 µM): 25.3%; viability, T/C (second compound 0.316 µM, first compound 0.00999 µM): 27.7%; viability, T/C [13]: 26.7%; viability, T/C (second compound 0.316 µM, first compound 0.0999 µM): 26.4%; viability, T/C [15]: 25.3%; viability, T/C (second compound 1 µM, first compound 0.000999 µM): 21.2%; viability, T/C (second compound 1 µM, first compound 0.00316 µM): 22.5%; viability, T/C (second compound 1 µM, first compound 0.00999 µM): 23.2%; viability, T/C [19]: 22.9%; viability, T/C (second compound 1 µM, first compound 0.0999 µM): 23.3%; viability, T/C [21]: 22%; viability, T/C (second compound 3.16 µM, first compound 0.000999 µM): 20.3%; viability, T/C (second compound 3.16 µM, first compound 0.00316 µM): 21%; viability, T/C (second compound 3.16 µM, first compound 0.00999 µM): 19.8%; viability, T/C [25]: 19.4%; viability, T/C (second compound 3.16 µM, first compound 0.0999 µM): 20.4%; viability, T/C [27]: 16.3%; viability, T/C (second compound 10 µM, first compound 0.000999 µM): 0.16%; viability, T/C (second compound 10 µM, first compound 0.00316 µM): 0.2%; viability, T/C (second compound 10 µM, first compound 0.00999 µM): 0.19%; viability, T/C [31]: 0.17%; viability, T/C (second compound 10 µM, first compound 0.0999 µM): 0.19%; viability, T/C [33]: 0.2%
